What all share (format): cell-based
Series [1] has as its system MAGI. The series is described as follows: Cytotoxicity in MAGI HIV-1IIIB assay. How it is done:
(§1) HIV-1 and MAGI Tropism assays can be used to establish activity/cytotoxicity and synergy studies and ADME profiles of compounds are evaluated using in vitro assays such as CYP2D6/3A4 assays and metabolic stability in human and mouse liver microsomes (See Tables 2 and 3).

Another series relates to HIV-1BaL. The series is described as follows: HIV MAGI assay, HIV-1BaL. Particulars: Table 3. How it is done: as §1
In series [2] the test system is MAGI. Description: Cytotoxicity in MAGI HIV-1BaL assay. As to the method:
as §1

The next series relates to HIV-1IIIB. Description: HIV MAGI assay, HIV-1IIIB. Particulars: Table 3. As to the method:
as §1

Where [3] appears, read: Human immunodeficiency virus 1, MAGI.

One may read the IC50 as the point on the concentration scale where inhibition reaches its midpoint. As a reminder, the IC90 is the concentration at which the effect reaches the 90% level.

Structures are written as SMILES. A value given as a limit tells only on which side of the number the result lay.

`NCCCCN(C[C@H]1CN(CC[C@H](NC(=O)C2CCC(F)(F)CC2)c2ccccc2)CCN1CC1COC1)[C@H]1CCCc2cccnc21` [Compound 75, N—((S)-3-((R)-3-(((4-aminobutyl)((S)-5,6,7,8-tetrahydroquinolin-8-yl)amino)methyl)-4-(oxetan-3-ylmethyl)piperazin-1-yl)-1-phenylpropyl)-4,4-difluorocyclohexane-1-carboxamide]: the “MAGI HIV-1IIIB TC50” value with MAGI [1] (Table 3) was above 100 µM. In addition, the IC50 with HIV-1BaL (setting [3]) was 2.51 µM; in the series on HIV-1IIIB (setting [3]), 6.61 µM. Further, the IC90 with HIV-1BaL (setting [3]) was found to be 97.1 µM; in the series with HIV-1IIIB (setting [3]) it was 68.5 µM. The “MAGI HIV-1BaL TC90” value with MAGI [2] (Table 3, head prints TC90) was above 100 µM.

On to `NCCCCN(C[C@H]1CN(CC[C@H](NC(=O)C2CCC(F)(F)CC2)c2ccccc2)CCN1Cc1ccncc1)[C@H]1CCCc2cccnc21` [Compound 81, N—((S)-3-((R)-3-(((4-aminobutyl)((S)-5,6,7,8-tetrahydroquinolin-8-yl)amino)methyl)-4-(pyridin-4-ylmethyl)piperazin-1-yl)-1-phenylpropyl)-4,4-difluorocyclohexane-1-carboxamide], for which, in the series on MAGI [1] (Table 3), the “MAGI HIV-1IIIB TC50” value is above 100 µM. Moreover, the IC50 in the series with HIV-1BaL (setting [3]) worked out at 0.95 µM; in the series with HIV-1IIIB (setting [3]) it was 3.49 µM. The results for the IC90 with HIV-1BaL (setting [3]) and in the series on HIV-1IIIB (setting [3]) were 22.7 µM and 52.7 µM, respectively. In addition, the “MAGI HIV-1BaL TC90” value in the series with MAGI [2] (Table 3, head prints TC90) is above 100 µM.

Take `Cn1cncc1CN1CCN(CC[C@H](NC(=O)C2CCC(F)(F)CC2)c2ccccc2)C[C@@H]1CN(CCCCN)[C@H]1CCCc2cccnc21` [Compound 79, N—((S)-3-((R)-3-(((4-aminobutyl)((S)-5,6,7,8-tetrahydroquinolin-8-yl)amino)methyl)-4-((1-methyl-1H-imidazol-5-yl)methyl)piperazin-1-yl)-1-phenylpropyl)-4,4-difluorocyclohexane-1-carboxamide]: in the series with MAGI [1] (Table 3), the “MAGI HIV-1IIIB TC50” value is above 100 µM. Besides, in the series with HIV-1BaL (setting [3]), the half-maximal inhibitory concentration (IC50) amounted to 0.66 µM and the 90% effect concentration (IC90) was 7.35 µM. Also, in the series on MAGI [2] (Table 3, head prints TC90), the “MAGI HIV-1BaL TC90” value was above 100 µM. Also, in the series on HIV-1IIIB (setting [3]), the IC50 was determined as 2.58 µM and the IC90 was found to be 36.5 µM.

On to `NCCCCN(C[C@H]1CN(CC[C@H](NC(=O)C2CCC(F)(F)CC2)c2ccccc2)CCN1Cc1cnc[nH]1)[C@H]1CCCc2cccnc21` [Compound 77, N—((S)-3-((R)-4-((1H-imidazol-5-yl)methyl)-3-(((4-aminobutyl)((S)-5,6,7,8-tetrahydroquinolin-8-yl)amino)methyl)piperazin-1-yl)-1-phenylpropyl)-4,4-difluorocyclohexane-1-carboxamide], for which, in the series on MAGI [1] (Table 3), the “MAGI HIV-1IIIB TC50” value is above 100 µM. In the series on HIV-1BaL (setting [3]), the IC50 worked out at 1.54 µM and the IC90 was 23 µM. The “MAGI HIV-1BaL TC90” value with MAGI [2] (Table 3, head prints TC90) is above 100 µM. In the series on HIV-1IIIB (setting [3]), the IC50 is 0.002 µM and the IC90 was 0.009 µM.

`NCCCCN(CC1NC[C@@H]2CC[C@H]1N2CC[C@H](NC(=O)C1CCC(F)(F)CC1)c1ccccc1)[C@H]1CCCc2cccnc21` (single isomer, unassigned) [URf isomer 95]: the “MAGI HIV-1IIIB TC50” value in the series with MAGI [1] (human) was above 10.0 µM. In the series on HIV-1BaL, the IC50 was 0.82 µM and the IC90 is 8.96 µM. For the same compound, the “MAGI HIV-1BaL TC90” value with MAGI [2] (human) is above 100 µM. For the same compound, in the series on HIV-1IIIB, the IC50 was determined as 0.17 µM and the IC90 worked out at 0.9 µM.

With `NCCCCN(C[C@H]1CN(CC[C@H](NC(=O)C2CCC(F)(F)CC2)c2ccccc2)CCN1Cc1cncs1)[C@H]1CCCc2cccnc21` [Compound 66], the “MAGI HIV-1IIIB TC50” value in the series with MAGI [1] (Table 3) was above 100 µM. In the series on HIV-1BaL (setting [3]), the IC50 was found to be 0.33 µM and the IC90 was 4.38 µM. Also, the “MAGI HIV-1BaL TC90” value in the series on MAGI [2] (Table 3, head prints TC90) is above 100 µM. Also, in the series with HIV-1IIIB (setting [3]), the IC50 was found to be 12.4 µM and the IC90 was 65.8 µM.

Regarding `NCCCCN(C[C@H]1CN(CC[C@H](NC(=O)C2CCC(F)(F)CC2)c2ccccc2)CCN1Cc1cnco1)[C@H]1CCCc2cccnc21` [Compound 67], in the series on MAGI [1] (Table 3), the “MAGI HIV-1IIIB TC50” value is above 100 µM. In the series on HIV-1BaL (setting [3]), the IC50 came to 2.33 µM and the IC90 is 36.7 µM. In the series with MAGI [2] (Table 3, head prints TC90), the “MAGI HIV-1BaL TC90” value is above 100 µM. Besides, in the series with HIV-1IIIB (setting [3]), the IC50 was 3.19 µM and the concentration for an effect of 90% (IC90) was 44.6 µM.

As for `NCCCCN(CC1NC[C@@H]2CC[C@H]1N2CC[C@H](NC(=O)C1CCC(F)(F)CC1)c1ccccc1)[C@H]1CCCc2cccnc21` (single isomer, unassigned) [LRf isomer 95], the “MAGI HIV-1IIIB TC50” value in the series on MAGI [1] (human) is above 10.0 µM. Also, in the series on HIV-1BaL, the IC50 came out at 9.36 µM and the IC90 is above 100 µM. Also, in the series with MAGI [2] (human), the “MAGI HIV-1BaL TC90” value is above 100 µM. Moreover, in the series with HIV-1IIIB, the IC50 is above 10 µM and the IC90 is above 10 µM.

Consider `CN1CCN(CC[C@H](NC(=O)C2CCC(F)(F)CC2)c2ccccc2)C[C@@H]1CN(CCCCN)[C@H]1CCCc2cccnc21` [Compound 68], for which the “MAGI HIV-1IIIB TC50” value in the series on MAGI [1] (Table 3) was above 100 µM. In the series on HIV-1BaL (setting [3]), the IC50 amounted to 4.16 µM and the IC90 was 66.8 µM. In the series with MAGI [2] (Table 3, head prints TC90), the “MAGI HIV-1BaL TC90” value was above 100 µM. For the same compound, in the series with HIV-1IIIB (setting [3]), the IC50 stood at 10.2 µM and the IC90 turned out to be 70.2 µM.
